Measured values from US20120029187A1, “HALOALKYLSULFONANILIDE DERIVATIVE” (Nissan Chemical Industries, Ltd., priority 2009, published 2012).

What was measured:
Format in all cases: in vivo
[1] = tested on: barnyardgrass; assay: Test Example 1: herbicidal effects in preemergence treatment under submerged conditions; details: dose 2.52 g/a
How it was run: (§1)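 Weed seeds and 2.5-leaf rice seedlings shared each flooded cup of alluvial soil. Dosing, expressed as g per are, was by pouring water-diluted emulsifiable concentrate onto the surface on sowing day. Mortality was graded 0 to 5 after three weeks' growth.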

[2] = tested on: bulrush; assay: as above; details: dose 2.52 g/a
How it was run: as §1

[3] = tested on: ducksalad; assay: as above; details: dose 2.52 g/a
How it was run: as §1

[4] = tested on: transplanted rice; assay: Test Example 1: preemergence treatment under submerged conditions, effect on crop; details: dose 2.52 g/a
How it was run: as §1

[5] = tested on: barnyardgrass; assay: Test Example 2: herbicidal effects during the vegetation period under submerged conditions; details: treatment during the vegetation period under submerged conditions; dose 2.52 g/a
How it was run: (§2)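 Barnyardgrass, bulrush and ducksalad were co-sown in alluvial soil flooded to 4 cm and grown in a greenhouse at 25 to 30° C. At the 1- or 2-leaf stage, water-diluted emulsifiable concentrates went onto the water surface at set doses (g/a). Herbicidal effect was scored three weeks later on a graded scale.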

[6] = tested on: bulrush; assay: as above; details: treatment during the vegetation period under submerged conditions; dose 2.52 g/a
How it was run: as §2

[7] = tested on: ducksalad; assay: as above; details: treatment during the vegetation period under submerged conditions; dose 2.52 g/a
How it was run: as §2

[8] = tested on: Italian ryegrass; assay: Test Example 3: herbicidal effects in soil treatment; details: dose 6.3 g/a
How it was run: (§3)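 Seeds were sown in sterilized diluvial soil and covered with about 1.5 cm of soil. Compounds, formulated as emulsifiable concentrates and diluted with water, were sprayed evenly over the soil surface at set doses in g/a. Herbicidal effect was scored on a rating scale three weeks later.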

[9] = tested on: barnyardgrass; assay: as above; details: dose 6.3 g/a
How it was run: as §3

[10] = tested on: common chickweed; assay: as above; details: dose 6.3 g/a
How it was run: as §3

[11] = tested on: common lambsquater; assay: as above; details: dose 6.3 g/a
How it was run: as §3

[12] = tested on: common ragweed; assay: as above; details: dose 6.3 g/a
How it was run: as §3

[13] = tested on: giant foxtail; assay: as above; details: dose 6.3 g/a
How it was run: as §3

[14] = tested on: large crabgrass; assay: as above; details: dose 6.3 g/a
How it was run: as §3

[15] = tested on: redroot pigweed; assay: as above; details: dose 6.3 g/a
How it was run: as §3

[16] = tested on: water foxtail; assay: as above; details: dose 6.3 g/a
How it was run: as §3

[17] = tested on: wild oat; assay: as above; details: dose 6.3 g/a
How it was run: as §3

[18] = tested on: Italian ryegrass; assay: Test Example 4: herbicidal effect in foliage treatment; details: dose 6.3 g/a, three weeks after application
How it was run: (§4)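 Foliar spray, post-emergence: 14-day-old greenhouse plants (25–30° C, diluvial soil) treated with water-diluted EC at set g/a doses; visual herbicidal score at 3 wk post-application.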

[19] = tested on: barnyardgrass; assay: as above; details: dose 6.3 g/a, three weeks after application
How it was run: as §4

[20] = tested on: beadstraw; assay: as above; details: dose 6.3 g/a, three weeks after application
How it was run: as §4

[21] = tested on: common chickweed; assay: as above; details: dose 6.3 g/a, three weeks after application
How it was run: as §4

[22] = tested on: common lambsquater; assay: as above; details: dose 6.3 g/a, three weeks after application
How it was run: as §4

[23] = tested on: common ragweed; assay: as above; details: dose 6.3 g/a, three weeks after application
How it was run: as §4

[24] = tested on: giant foxtail; assay: as above; details: dose 6.3 g/a, three weeks after application
How it was run: as §4

[25] = tested on: large crabgrass; assay: as above; details: dose 6.3 g/a, three weeks after application
How it was run: as §4

[26] = tested on: redroot pigweed; assay: as above; details: dose 6.3 g/a, three weeks after application
How it was run: as §4

[27] = tested on: water foxtail; assay: as above; details: dose 6.3 g/a, three weeks after application
How it was run: as §4

[28] = tested on: wild oat; assay: as above; details: dose 6.3 g/a, three weeks after application
How it was run: as §4

Compound	A: barnyardgrass, herbicidal effect (evaluation scale 0-5) [1]	B: bulrush, herbicidal effect (evaluation scale 0-5) [2]	C: ducksalad, herbicidal effect (evaluation scale 0-5) [3]	a: transplanted rice, effect on crop (evaluation scale 0-5) [4]	A: barnyardgrass, herbicidal effect (evaluation scale 0-5) [5]	B: bulrush, herbicidal effect (evaluation scale 0-5) [6]	C: ducksalad, herbicidal effect (evaluation scale 0-5) [7]	H: Italian ryegrass, herbicidal effect (evaluation scale 0-5) [8]	A: barnyardgrass, herbicidal effect (evaluation scale 0-5) [9]	N: common chickweed, herbicidal effect (evaluation scale 0-5) [10]	L: common lambsquater, herbicidal effect (evaluation scale 0-5) [11]	J: common ragweed, herbicidal effect (evaluation scale 0-5) [12]	E: giant foxtail, herbicidal effect (evaluation scale 0-5) [13]	D: large crabgrass, herbicidal effect (evaluation scale 0-5) [14]	K: redroot pigweed, herbicidal effect (evaluation scale 0-5) [15]	G: water foxtail, herbicidal effect (evaluation scale 0-5) [16]	F: wild oat, herbicidal effect (evaluation scale 0-5) [17]	H: Italian ryegrass, herbicidal effect [18]	A: barnyardgrass, herbicidal effect [19]	O: beadstraw, herbicidal effect [20]	other results
CC(C)COC(=O)N(c1ccccc1CN1COC(C)CC1=O)S(=O)(=O)C(F)(F)F (centres unmarked) [II-8]	5 (mortality of 90% or above (nearly complete death))	5 (mortality of 90% or above (nearly complete death))	5 (mortality of 90% or above (nearly complete death))	0 (mortality of less than 5% (almost ineffective))	5 (mortality of 90% or above (nearly complete death))	5 (mortality of 90% or above (nearly complete death))	4 (mortality of at least 70% and less than 90%)	0 (mortality of less than 5% (almost ineffective))	5 (mortality of 90% or above (nearly complete death))	3 (mortality of at least 40% and less than 70%)	4 (mortality of at least 70% and less than 90%)	5 (mortality of 90% or above (nearly complete death))	4 (mortality of at least 70% and less than 90%)	4 (mortality of at least 70% and less than 90%)	0 (mortality of less than 5% (almost ineffective))	5 (mortality of 90% or above (nearly complete death))	0 (mortality of less than 5% (almost ineffective))	0 (mortality of less than 5% (almost ineffective))	5 (mortality of 90% or above (nearly complete death))	1 (mortality of at least 5% and less than 20%)	N: common chickweed, herbicidal effect [21]: 1 (mortality of at least 5% and less than 20%); L: common lambsquater, herbicidal effect [22]: 5 (mortality of 90% or above (nearly complete death)); J: common ragweed, herbicidal effect [23]: 4 (mortality of at least 70% and less than 90%); E: giant foxtail, herbicidal effect [24]: 4 (mortality of at least 70% and less than 90%); D: large crabgrass, herbicidal effect [25]: 5 (mortality of 90% or above (nearly complete death)); K: redroot pigweed, herbicidal effect [26]: 0 (mortality of less than 5% (almost ineffective)); G: water foxtail, herbicidal effect [27]: 5 (mortality of 90% or above (nearly complete death)); F: wild oat, herbicidal effect [28]: 0 (mortality of less than 5% (almost ineffective))
CCOC(=O)N(c1ccccc1CN1COC(C)CC1=O)S(=O)(=O)C(F)(F)F (centres unmarked) [II-7]	5 (mortality of 90% or above (nearly complete death))	5 (mortality of 90% or above (nearly complete death))	5 (mortality of 90% or above (nearly complete death))	0 (mortality of less than 5% (almost ineffective))	5 (mortality of 90% or above (nearly complete death))	5 (mortality of 90% or above (nearly complete death))	4 (mortality of at least 70% and less than 90%)	2 (mortality of at least 20% and less than 40%)	5 (mortality of 90% or above (nearly complete death))	4 (mortality of at least 70% and less than 90%)	5 (mortality of 90% or above (nearly complete death))	4 (mortality of at least 70% and less than 90%)	5 (mortality of 90% or above (nearly complete death))	5 (mortality of 90% or above (nearly complete death))	0 (mortality of less than 5% (almost ineffective))	5 (mortality of 90% or above (nearly complete death))	2 (mortality of at least 20% and less than 40%)	3 (mortality of at least 40% and less than 70%)	5 (mortality of 90% or above (nearly complete death))	3 (mortality of at least 40% and less than 70%)	N: common chickweed, herbicidal effect [21]: 2 (mortality of at least 20% and less than 40%); L: common lambsquater, herbicidal effect [22]: 5 (mortality of 90% or above (nearly complete death)); J: common ragweed, herbicidal effect [23]: 5 (mortality of 90% or above (nearly complete death)); E: giant foxtail, herbicidal effect [24]: 5 (mortality of 90% or above (nearly complete death)); D: large crabgrass, herbicidal effect [25]: 5 (mortality of 90% or above (nearly complete death)); K: redroot pigweed, herbicidal effect [26]: 0 (mortality of less than 5% (almost ineffective)); G: water foxtail, herbicidal effect [27]: 5 (mortality of 90% or above (nearly complete death)); F: wild oat, herbicidal effect [28]: 0 (mortality of less than 5% (almost ineffective))
